Consider nine compounds from ChEMBL document CHEMBL1201862, “PubChem BioAssay data set” (2004).

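Assay format: 96-well plates, 48-hour exposure. GI50: concentration for 50% inhibition of growth.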 Activity calls are given as the source filed them. Rule as the data show it: active = GI50 up to about 1.1 µM and inactive = higher.

Some test systems named below: 786-0; CAKI-1; COLO 205; HCT-15; HT-29; IGROV-1; NCI-H226; NCI-H23; RXF 393; SF-268; SF-539; SK-MEL-28; SN12C; SNB-75; TK-10; UO-31; A549.
Common to all, as to assay: DTP human tumour cell line panel, 48 h

Regarding `Cc1ccc2nc(NC(=O)C(=O)C(C#N)c3nc4ccccc4s3)sc2c1` (stereo unspecified), the GI50 (as a rule, the concentration that inhibits growth by half) in the experiment with 786-0 is 44.5 µM (inactive); with CAKI-1, 42.2 µM (inactive); with COLO 205 it was 18 µM (inactive); in the experiment on HCT-15, 32 µM; with HT-29 it was 26.8 µM (inactive); in the experiment on IGROV-1, 17.8 µM (inactive). Also, the GI50 was 25.1 µM (inactive) with NCI-H226; 35 µM (inactive) in the experiment on NCI-H23; 31.5 µM (inactive) in the experiment on RXF 393; 51.6 µM (inactive) in the experiment with SF-268; 22.3 µM (inactive) with SF-539; 51.8 µM (inactive) with SK-MEL-28. The GI50 in the experiment on SN12C is 54 µM (inactive); in the experiment on SNB-75 it was 40.6 µM (inactive); in the experiment on TK-10, 30.8 µM (inactive); in the experiment with UO-31, 39.8 µM (inactive).
On to `COC(=O)C1=Cc2cc(OC)c(OC)c(OC)c2[C@H](c2cc(OC)c(OC)c(OC)c2)C1C(=O)OC` (stereo partly specified), for which the GI50 in the experiment on 786-0 is > 100 µM (inactive); with A549, > 100 µM (inactive); with CAKI-1, > 100 µM (inactive); with COLO 205, > 100 µM (inactive); with HCT-15 it was greater than 100 µM; in the experiment with HT-29, > 100 µM (inactive). Also, the GI50 with IGROV-1, in the experiment with NCI-H226, in the experiment with NCI-H23, with RXF 393, in the experiment with SF-268 and in the experiment on SF-539 was > 100 µM (inactive) each time. Also, the GI50 with SK-MEL-28, with SN12C, in the experiment on SNB-75, with TK-10 and in the experiment on UO-31 was > 100 µM (inactive) each time.
Turning to `O=C1NC(=S)NC(=O)C1=Cc1ccc2ccccc2n1`, the GI50 with 786-0 was > 100 µM (inactive); in the experiment with A549 it was > 100 µM (inactive); in the experiment on CAKI-1 it was > 100 µM (inactive); with COLO 205 it was > 100 µM (inactive); in the experiment on HCT-15, greater than 100 µM; in the experiment with HT-29, > 100 µM (inactive). Besides, the GI50 with IGROV-1, with NCI-H226, in the experiment on NCI-H23, in the experiment with RXF 393, in the experiment on SF-268 and with SF-539 was > 100 µM (inactive) throughout. Moreover, the GI50 in the experiment with SK-MEL-28, in the experiment on SN12C, in the experiment on SNB-75, with TK-10 and in the experiment with UO-31 was > 100 µM (inactive) in each case.
Turning to `COC(=O)/C(C#N)=C1\CCC(OC)N1C` (stereo unspecified), the GI50 was > 100 µM (inactive) in the experiment on 786-0; > 100 µM (inactive) in the experiment with A549; > 100 µM (inactive) in the experiment with CAKI-1; > 100 µM (inactive) in the experiment with COLO 205; greater than 100 µM with HCT-15; > 100 µM (inactive) in the experiment on HT-29. The GI50 in the experiment with IGROV-1, in the experiment with NCI-H226, in the experiment with NCI-H23, in the experiment on RXF 393, in the experiment on SF-268 and in the experiment on SF-539 was > 100 µM (inactive) each time. The GI50 in the experiment on SK-MEL-28, with SN12C, in the experiment with SNB-75, with TK-10 and in the experiment on UO-31 was > 100 µM (inactive) in each case.
Take `COc1ccc(-c2cc(-c3cc(Cl)cc(Br)c3O)nc(O)n2)cc1`: the GI50 was 15.5 µM (inactive) in the experiment on 786-0; 16.7 µM (inactive) in the experiment with A549; 16.4 µM (inactive) in the experiment with CAKI-1; 15.6 µM (inactive) with COLO 205; 17.7 µM (inactive) in the experiment on HT-29; 20.4 µM (inactive) with IGROV-1. In addition, the GI50 was 17.5 µM (inactive) with NCI-H226; 14 µM (inactive) in the experiment with NCI-H23; 14.5 µM (inactive) with RXF 393; 16.3 µM (inactive) in the experiment on SF-268; 14.7 µM (inactive) in the experiment with SF-539; 19.9 µM (inactive) with SK-MEL-28. Moreover, the GI50 with SN12C is 15.5 µM (inactive); with SNB-75 it was 15.4 µM (inactive); with TK-10, 26.2 µM (inactive); in the experiment on UO-31, 17.3 µM (inactive).
As for `O=c1[nH]c(S)nc2c1sc(=S)n2-c1ccccc1`, the GI50 was > 100 µM (inactive) with 786-0; > 100 µM (inactive) in the experiment with A549; > 100 µM (inactive) in the experiment on CAKI-1; > 100 µM (inactive) in the experiment on COLO 205; greater than 100 µM in the experiment with HCT-15; > 100 µM (inactive) in the experiment with HT-29. Moreover, the GI50 in the experiment on IGROV-1, in the experiment with NCI-H226, in the experiment on NCI-H23, in the experiment on RXF 393, with SF-268 and in the experiment with SF-539 was > 100 µM (inactive) in each case. Also, the GI50 in the experiment on SK-MEL-28 is > 100 µM (inactive); with SN12C, > 100 µM (inactive); in the experiment with SNB-75, 55.1 µM (inactive); in the experiment on TK-10 it was > 100 µM (inactive); in the experiment with UO-31 it was > 100 µM (inactive).
With `Cc1ccccc1/C=C/c1csnn1`, the GI50 with 786-0 was > 100 µM (inactive); in the experiment with A549, > 57.3 µM (inactive); in the experiment on CAKI-1, > 100 µM (inactive); in the experiment with COLO 205 it was > 100 µM (inactive); in the experiment with HCT-15 it was greater than 42.2 µM; with HT-29, > 100 µM (inactive). The GI50 was > 100 µM (inactive) in the experiment on IGROV-1; > 100 µM (inactive) with NCI-H226; > 100 µM (inactive) in the experiment on NCI-H23; > 100 µM (inactive) in the experiment on RXF 393; > 46.2 µM (inactive) in the experiment on SF-268; > 100 µM (inactive) in the experiment on SF-539. Besides, the GI50 in the experiment with SK-MEL-28, with SN12C, in the experiment on SNB-75, with TK-10 and with UO-31 was > 100 µM (inactive) each time.
Turning to `C1CN(P2(N3CC3)=NP(N3CC3)(N3CC3)=NP(N3CC3)(N3CC3)=N2)CCO1` (stereo unspecified) [FOTRETAMINE], the GI50 in the experiment with 786-0 is 55.3 µM (inactive); in the experiment with A549, > 100 µM (inactive); in the experiment on CAKI-1, > 100 µM (inactive); in the experiment on COLO 205, > 100 µM (inactive); with HCT-15, greater than 100 µM; in the experiment on HT-29 it was > 100 µM (inactive). Also, the GI50 in the experiment on IGROV-1 is > 100 µM (inactive); in the experiment on NCI-H226, > 85.5 µM (inactive); in the experiment on NCI-H23, 27.4 µM (inactive); with RXF 393, > 100 µM (inactive); with SF-268, 47.3 µM (inactive); with SF-539, 44.8 µM (inactive). Moreover, the GI50 was > 100 µM (inactive) with SK-MEL-28; > 68.2 µM (inactive) in the experiment on SN12C; 55.7 µM (inactive) in the experiment with SNB-75; > 100 µM (inactive) with TK-10; > 100 µM (inactive) in the experiment with UO-31.
In the case of `Cc1cc2nc(O)c(CCC(=O)O)nc2cc1C`, the GI50 was > 100 µM (inactive) with 786-0; > 100 µM (inactive) in the experiment on A549; > 100 µM (inactive) with CAKI-1; 70.6 µM (inactive) with COLO 205; greater than 100 µM in the experiment with HCT-15; > 100 µM (inactive) in the experiment on HT-29. Besides, the GI50 with IGROV-1, in the experiment on NCI-H226, in the experiment with NCI-H23, in the experiment with RXF 393, with SF-268 and with SF-539 was > 100 µM (inactive) in each case. Further, the GI50 with SK-MEL-28, with SN12C, with SNB-75, with TK-10 and in the experiment with UO-31 was > 100 µM (inactive) in each case.
